# Test results taken from patent US20120185955A1, “HEDGEHOG INHIBITOR ASSAY” (priority 2005, published 2012).
# Legend:
# Gli2 = conditions: HEK293 cells transfected with Gli2 plasmid; 48 h treatment
# Method: (§1) Luciferase activity was measured after 72 h of treatment time with the indicated compound. […] (B) Gli1 inhibition, (C) Gli2 inhibition in HEK293 cells. Treatment was for 48 h after transfection of the corresponding Gli plasmid and a Hh/Gli reporter (12×GliBS-Luc) and a renilla luciferase plasmid for normalisation.
# (§2) Transfections were done using Fugene (Roche) according to instructions given by the manufacturer.
# (§3) Hh reporter assays were performed essentially as described (59, 60). Signals were recorded using the Dual Luciferase Kit (Promega) for luciferase measurements and Galacto-Light Plus (Applied Biosystems) for β-Galactosidase measurements.
# [1] = test system: GLI-induced transcription in Sufu−/− MEFs; experiment: Substance testing: Hh/Gli reporter 8×GliLuc in Sufu−/− MEFs (inhibition of GLI-induced transcription); assay type: cell-based, mouse; conditions: 72 h of treatment
# Method: Inhibition of GLI-induced transcription. (A) Sufu^−/− MEFs were transfected with Hh/Gli reporter plasmid 8×GliLuc and a renilla luciferase plasmid for normalisation. Luciferase activity was measured after 72 h of treatment time with the indicated compound.
# For the substance testing, Sufu−/− MEF cells are transfected with 8×Gli and phRL-SV40 (or phRL-TK) plasmids using Fugene transfection reagent on larger plates. The day after transfection, cells are replated on suitable microwell plates. When cells reach confluency, substances, which are tested for inhibiting activity, (dissolved in DMSO) are added at a concentration of approximately 10 μM, or any other appropriate concentration. As control, the same volume of only DMSO without test compound is added (reaching a final concentration of e.g. 0.5-2% of DMSO in the cell culture medium) in order to assess solvent-based effects. Cells are lysed approximately 3-4 days later, and luciferase levels are measured using the Dual-Reporter Luciferase system (Promega) or any other suitable method.
# Signals were recorded using the Dual Luciferase Kit (Promega) for luciferase measurements and Galacto-Light Plus (Applied Biosystems) for β-Galactosidase measurements.
# Gli1 = conditions: HEK293 cells transfected with Gli1 plasmid; 48 h treatment
# Method: as §1, §2, §3
# [2] = test system: Gli reporter activity in Sufu−/− MEFs; experiment: 8×GliLuc luciferase reporter assay in Sufu−/− MEFs; assay type: cell-based, mouse
# Method: For the luciferase reporter assays, 20,000 MEF cells were seeded into each well of a 24-well plate in MEF medium. The following day, cells were transfected using FuGENE 6 (Roche) with 300 ng of the luciferase reporter plasmids 8×GliLuc and 8×Gli^mutLuc (58) with or without 300 ng of the pMYC-SUFU expression plasmid (9), 300 ng of a constitutively active PKA catalytic subunit expression plasmid (59) or with 300 ng of the TOPflash and FOPflash reporter plasmids (Upstate Biotechnology), together with 50 ng the Renilla luciferase phRL-TK reporter (Promega) to monitor the transfection efficiency. […] The assays were conducted in triplicate and repeated at least three times. The values were normalized to the Renilla reporter before calculating relative levels.
# [3] = test system: EGFP::Gli1 nuclear export in MEFs; experiment: GLI1 subcellular localization in MEFs (EGFP::GLI1, confocal); assay type: cell-based, mouse; conditions: Wt, Sufu−/− and Ptch1−/− MEFs; 10 ng/ml Leptomycin B, 3-6 hours
# Method: Wt, Sufu^−/− and Ptch1^−/− MEFs (1×10^6 cells) were each transfected with 5 μg of the expression constructs containing GLI1 cDNA fused in frame 3′ of EGFP [EGFP::GLI1, (9)] or with the parental EGFP plasmid alone (BD Biosciences Clontech) in MEF 1 solution using Nucleofector technology, program T-20 (Amaxa Biosystems), and seeded onto slide chambers followed by culturing overnight. Twenty-four hours after transfection, cells were either treated with 10 ng/ml Leptomycin B (Sigma) for 3-6 hours or left untreated, washed in PBS, fixed in 4% PFA, washed in PBS again and incubated with DRAQ5 (Alexis Biochemicals) for visualization of cell nuclei, followed by mounting using ProLong Gold antifade reagent (Invitrogen). Fluorescence was visualized using a Zeiss LSM510 confocal microscope with lasers set at 488 nm for EGFP and at 633 nm for DRAQ5.
# [4] = test system: β-Galactosidase reporter enzyme (pSV40-lacZ); experiment: Gli-independent β-Galactosidase construct (pSV40-lacZ) control; assay type: cell-based
compound,measurement,setting,value
CC1=C2C[C@H]3[C@@H](CC=C4C[C@@H](O)CC[C@@]43C)[C@@H]2CC[C@]12O[C@@H]1C[C@H](C)CN[C@H]1[C@H]2C [Cyclopamine],Gli2 inhibition (12×GliBS-Luc reporter),Gli2,inactive
same,"Luciferase signal intensity (8×GliLuc, renilla-normalised)",[1],ineffective
same,Gli1 inhibition (12×GliBS-Luc reporter),Gli1,inactive
O=S(=O)(NCCNC/C=C/c1ccc(Br)cc1)c1cccc2cnccc12 [H-89],Effect on the Gli response (8×GliLuc),"[2]; MEFs, 1 μM H-89, one day",no significant effect
C=C[C@@]1(C)CC(=O)[C@]2(O)[C@@]3(C)[C@@H](O)CCC(C)(C)[C@@H]3[C@H](O)[C@H](OC(C)=O)[C@@]2(C)O1 [forskolin],inhibition at 100 µM,"[2]; Mus musculus, 24 h, Sufu−/− MEFs, 100 μM forskolin, one day, read-out: Inhibition of the Gli-mediated response",~50%
"CCC(=C/[C@H](C)C/C=C/C(C)=C/[C@@H](C)C(=O)[C@@H](C)[C@H](O)[C@@H](C)C/C(C)=C/C(=O)O)/C=C/[C@@H]1OC(=O)C=C[C@@H]1C [LMB, Leptomycin B]",Subcellular localization of EGFP::Gli1 fusion protein,[3],strong nuclear retention
CNC1CCC(N(Cc2cccc(-c3ccncc3)c2)C(=O)c2sc3ccccc3c2Cl)CC1 (stereo not drawn) [SAG],Effect on Gli reporter activity (8×GliLuc),"[2]; Sufu−/− MEFs, 10 μM cyclopamine or 100 nM SAG for two days",No further increase in Gli reporter activity
"CN(C)CCCNc1ccc2c(c1)C(=O)c1ccccc1C2=O [GANT55, 2-(3-Dimethylamino-propylamino)-anthraquinone]","Luciferase signal intensity (8×GliLuc, renilla-normalised)",[1],reduces signal intensity in a dose-dependent manner
same,Unspecific inhibition of the β-Galactosidase reporter enzyme,[4],not due to unspecific inhibition of the reporter enzyme
